{"source": "patent US8197795B2", "about": "“Method for monitoring early treatment response” (Receptomon, LLC, priority 2004, dated 2012)", "origin": "cited, not measured here", "key": {"[1]": {"test_system": "xenograft models, including colon cancer, non-small cell lung cancer (NSCLC), and prostate cancer", "conditions": "Ranson et al."}, "solid, malignant tumors": {"test_system": "solid, malignant tumors", "conditions": "patients with solid, Ranson et al. 2002"}, "NSCLC": {"test_system": "NSCLC", "conditions": "NSCLC patients treated with gefitinib; Lynch et al. 2004"}}}
{"smiles": "COc1cc2ncnc(Nc3ccc(F)c(Cl)c3)c2cc1OCCCN1CCOCC1", "note": "[gefitinib]", "values": [{"measurement": "activity in xenograft models", "setting": "[1]", "value": "active"}, {"measurement": "activity in patients", "setting": "solid, malignant tumors", "value": "active"}, {"measurement": "patients with a rapid and often dramatic clinical response", "setting": "NSCLC", "value": "about 10%"}]}
